Test [1] has as its target T1, EcPBP3 (Escherichia coli, UniProt P0AD68).
T1 construct: For assays, selections and SPR a construct with residues 60–588 which has the N-terminal domain, but not the transmembrane helix, was used; made in house
Kind of test: Fluorescence polarisation competition assay with fluorescent Bicycle tracer (tracer 1 / BCY12820). Type of test: binding. Conditions: protein 9.4 nM sets sensitivity limit, top concentration 5 µM, read-out: Ki (nM) by fluorescence polarisation with tracer 1 (BCY12820 as tracer), Geometric mean (Lower 95% CI; Upper 95% CI, n=number of values). As to the method:
Competition fluorescence polarisation assays were run by observing the fluorescence polarisation of a fluorescent “tracer” Bicycle molecule which competes against an unlabelled peptide for binding to the EcPBP3 target. 10 µL of protein (9.4 nM) was mixed with either 5 µL of peptide or 5 µL of buffer and then the assay was initiated by the addition of 10 µL of tracer (1 nM) (final volume 25 µL), in a black 384 low bind, low volume plate (Corning). The buffer was 10 mM HEPES (Sigma), 2% (v/v) glycerol (Sigma), 300 mM NaCl (Sigma), adjusted to pH 8. The plate was incubated for 1 h at 25 °C and then read in a PHERAstar FS (BMG) using with an “FP 485 520 520” optic module (excitation 485 nm, emission 520 nm). The gain was determined immediately prior to the read on a tracer-only well.
Dotmatics (Dotmatics) workflows performing the above calculations were used to process the data. Values quoted are the geometric means of at least 2 repeats.
In general terms: In fluorescence polarisation assays a small probe gives low polarisation when free and higher when bound to something large.

In test [2] the target is T1, EcPBP3. In words: SPR binding assay on immobilised EcPBP3. Conditions: 37 °C, kinetic fitting, NB = no binding at 2500 nM (Tables S-4, S-5) or 5000 nM (Table 1); for Kd: read-out: Kd (nM) by SPR (geomean). As to the method: Surface plasmon resonance (SPR) assays were performed using EcPBP3 immobilized on CM5 sensor chips (GE Healthcare) via amine-coupling chemistry in assay buffer (10 mM HEPES pH 8.0, 200 mM NaCl, 0.05% (v/v) surfactant P20). The chip surface was activated by injection (10 μL min^–1) of 0.4 M EDC and 0.1 M NHS (in a 1:1 ratio) with a 7 min contact time. Protein was diluted to 25 μg mL^–1 in 10 mM MOPS (pH 7.0) and injected over the activated sensor chip surface to reach immobilization of 1500-2500 response units. Excess hydroxysuccinimidyl groups on the chip surface were deactivated by injection (10 μL min^–1) of 1 M ethanolamine hydrochloride pH 8.0 with a 7 min contact time. Reference flow cells were prepared as described, but without ligand (EcPBP3 protein).
Binding analysis runs were performed at 37 °C in running buffer (10 mM HEPES pH 8.0, 200 mM NaCl, 0.05% (w/v) Tween-20, 2% (v/v) DMSO). Test compounds (and control runs of buffer only) were injected in running buffer over the EcPBP3 chip and reference flow cell, at flow rate of 50 μL min^–1 for 150 s contact time and 2400 s dissociation time. Each injection was followed by a wash with 50% (v/v) DMSO. All compounds were tested in at least two independent biological replicates unless otherwise stated.
Raw sensorgrams data were solvent-corrected, reference-subtracted and blank-buffer-subtracted (double-referencing) before kinetic and affinity analysis to account for non-specific binding and injection artifacts. Equilibrium dissociation constant (Kd) values was determined using the Biacore™ Insight Evaluation Software (version 4.0.8 or version 5.0.17) using kinetic fitting. Kd values presented are the geometric mean of at least two biological replicates.

Structures are written as SMILES. Where a SMILES comes first, the peptide text is derived from it.

T1 sequence (P0AD68 60-588): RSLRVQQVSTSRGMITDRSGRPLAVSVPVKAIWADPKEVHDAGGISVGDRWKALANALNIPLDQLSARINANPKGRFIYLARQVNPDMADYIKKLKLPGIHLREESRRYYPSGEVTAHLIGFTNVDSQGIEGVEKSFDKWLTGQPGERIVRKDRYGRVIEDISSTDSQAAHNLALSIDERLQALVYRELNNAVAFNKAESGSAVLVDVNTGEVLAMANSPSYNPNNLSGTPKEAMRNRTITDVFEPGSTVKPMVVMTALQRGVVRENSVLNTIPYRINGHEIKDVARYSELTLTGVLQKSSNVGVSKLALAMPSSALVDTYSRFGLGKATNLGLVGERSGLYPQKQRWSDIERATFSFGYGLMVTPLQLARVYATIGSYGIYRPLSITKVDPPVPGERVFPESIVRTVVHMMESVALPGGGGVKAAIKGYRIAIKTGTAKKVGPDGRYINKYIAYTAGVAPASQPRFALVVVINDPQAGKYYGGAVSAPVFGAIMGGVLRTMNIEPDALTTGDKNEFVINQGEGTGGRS

Broadly, the Ki is the equilibrium dissociation constant of an inhibitor or competing ligand from its target. One may read the Kd as the equilibrium constant for the complex coming apart. As to `CC(C)[C@@H]1NC(=O)[C@H](Cc2c[nH]c3ccccc23)NC(=O)[C@@H]2CCCN2C(=O)[C@@H]2CSCCC(=O)N3CN(CN(C3)C(=O)CCSC[C@H](NC(=O)[C@H](C)N)C(=O)N[C@@H](CO)C(=O)N[C@@H](Cc3ccccc3)C(=O)N3CCC[C@H]3C(=O)N[C@@H](CCCCNC(=N)N)C(=O)N2)C(=O)CCSC[C@@H](C(=O)N[C@@H](C)C(N)=O)NC(=O)CNC(=O)[C@H](CCC(=O)O)NC1=O` [Peptide 25], the Ki in test [1] is less than 9 nM. Also, in test [2], the “Kd (nM) by SPR (geomean)” value was “no loss in binding or MIC” and the Kd came to 2.85 nM.

In the case of `CC(C)[C@@H]1NC(=O)[C@H](Cc2c[nH]c3ccccc23)NC(=O)[C@@H]2CCCN2C(=O)[C@@H]2CSCCC(=O)N3CN(CN(C3)C(=O)CCSC[C@@H](C(=O)N[C@@H](C)C(N)=O)NC(=O)[C@H](C)NC(=O)[C@H](CCC(=O)O)NC1=O)C(=O)CCSC[C@H](NC(=O)[C@H](C)N)C(=O)N[C@@H](CO)C(=O)N[C@@H](Cc1ccccc1)C(=O)N1CCC[C@H]1C(=O)N[C@@H](CCCCN)C(=O)N2` [Peptide 24], the Ki in test [1] was 25.5 nM. Also, the Kd in test [2] came out at 24.4 nM.

Regarding `CC(C)[C@@H]1NC(=O)[C@H](Cc2c[nH]c3ccccc23)NC(=O)[C@@H]2CCCN2C(=O)[C@@H]2CSCCC(=O)N3CN(CN(C3)C(=O)CCSC[C@H](NC(=O)[C@H](C)N)C(=O)N[C@@H](C)C(=O)N[C@@H](Cc3ccccc3)C(=O)N3CCC[C@H]3C(=O)N[C@@H](CCCCN)C(=O)N2)C(=O)CCSC[C@@H](C(=O)N[C@@H](C)C(N)=O)NC(=O)CNC(=O)[C@H](CCC(=O)O)NC1=O` [Peptide 16] (HELM PEPTIDE1{A.C.A.F.P.K.C.P.W.V.E.G.C.A.[am]}|CHEM1{[O=C(CC[*:1])N1CN(C(=O)CC[*:2])CN(C(=O)CC[*:3])C1]}$PEPTIDE1,CHEM1,2:R3-1:R1|PEPTIDE1,CHEM1,7:R3-1:R2|PEPTIDE1,CHEM1,13:R3-1:R3$$$V2.0), the Ki in test [1] is less than 9 nM. Further, the Kd in test [2] is 6.44 nM.

With `CC(C)C[C@@H]1NC(=O)[C@@H](NC(=O)[C@H](C)N)CSCCC(=O)N2CN3CN(C2)C(=O)CCSC[C@H](NC(=O)[C@H](CCCCNC(=N)N)NC(=O)[C@@H]2CCCN2C(=O)[C@H](Cc2ccccc2)NC1=O)C(=O)N1CCC[C@H]1C(=O)N[C@@H](Cc1c[nH]c2ccccc12)C(=O)N[C@@H](C(C)C)C(=O)N[C@@H](CCC(=O)O)C(=O)NCC(=O)N[C@H](C(=O)N[C@@H](C)C(N)=O)CSCCC3=O` [Peptide 27] (HELM PEPTIDE1{A.C.L.F.P.[N=C(N)NCCCC[C@H](N[*:1])C(=O)[*:2]].C.P.W.V.E.G.C.A.[am]}|CHEM1{[O=C(CC[*:1])N1CN(C(=O)CC[*:2])CN(C(=O)CC[*:3])C1]}$PEPTIDE1,CHEM1,2:R3-1:R1|PEPTIDE1,CHEM1,7:R3-1:R2|PEPTIDE1,CHEM1,13:R3-1:R3$$$V2.0), in test [1], the Ki was less than 9 nM. The Kd in test [2] stood at 3.36 nM.

On to `CC(C)[C@@H]1NC(=O)[C@H](Cc2c[nH]c3ccccc23)NC(=O)[C@@H]2CCCN2C(=O)[C@@H]2CSCCC(=O)N3CN(CN(C3)C(=O)CCSC[C@@H](C(=O)N[C@@H](C)C(N)=O)NC(=O)[C@H](Cc3ccc(O)cc3)NC(=O)[C@H](CCC(=O)O)NC1=O)C(=O)CCSC[C@H](NC(=O)[C@H](C)N)C(=O)N[C@@H](CO)C(=O)N[C@@H](Cc1ccccc1)C(=O)N1CCC[C@H]1C(=O)N[C@@H](CCCCNC(=N)N)C(=O)N2` [Peptide 51] (HELM PEPTIDE1{A.C.S.F.P.[N=C(N)NCCCC[C@H](N[*:1])C(=O)[*:2]].C.P.W.V.E.Y.C.A.[am]}|CHEM1{[O=C(CC[*:1])N1CN(C(=O)CC[*:2])CN(C(=O)CC[*:3])C1]}$PEPTIDE1,CHEM1,2:R3-1:R1|PEPTIDE1,CHEM1,7:R3-1:R2|PEPTIDE1,CHEM1,13:R3-1:R3$$$V2.0), for which, in test [1], the Ki was less than 9 nM. For the same molecule, the Kd in test [2] was determined as 1.83 nM.

Turning to `CC(C)[C@@H]1NC(=O)[C@H](Cc2c[nH]c3ccccc23)NC(=O)[C@@H]2CCCN2C(=O)[C@@H]2CSCCC(=O)N3CN(CN(C3)C(=O)CCSC[C@H](NC(=O)[C@H](C)N)C(=O)N[C@@H](CO)C(=O)N[C@@H](Cc3ccccc3)C(=O)N3CCC[C@H]3C(=O)N[C@@H](C)C(=O)N2)C(=O)CCSC[C@@H](C(=O)N[C@@H](C)C(N)=O)NC(=O)CNC(=O)[C@H](CCC(=O)O)NC1=O` [Peptide 19], the Ki in test [1] was less than 9 nM. The Kd in test [2] amounted to 12.4 nM.

For the molecule `CC(C)[C@@H]1NC(=O)[C@H](Cc2c[nH]c3ccccc23)NC(=O)[C@@H]2CCCN2C(=O)[C@@H]2CSCCC(=O)N3CN(CN(C3)C(=O)CCSC[C@H](NC(=O)[C@H](C)N)C(=O)N[C@@H](CO)C(=O)N[C@@H](Cc3ccccc3)C(=O)N3CCC[C@H]3C(=O)N[C@@H](CCCCN)C(=O)N2)C(=O)CCSC[C@@H](C(=O)N[C@@H](C)C(N)=O)NC(=O)CNC(=O)[C@H](C)NC1=O` [Peptide 23], the Ki in test [1] is 9.08 nM. The Kd in test [2] came out at 6.71 nM.

As to `CC(C)[C@@H]1NC(=O)[C@H](Cc2c[nH]c3ccccc23)NC(=O)[C@@H]2CCCN2C(=O)[C@@H]2CSCCC(=O)N3CN(CN(C3)C(=O)CCSC[C@H](NC(=O)[C@H](C)N)C(=O)N[C@@H](Cc3ccccc3)C(=O)N[C@@H](Cc3ccccc3)C(=O)N3CCC[C@H]3C(=O)N[C@@H](CCCCNC(=N)N)C(=O)N2)C(=O)CCSC[C@@H](C(=O)N[C@@H](C)C(N)=O)NC(=O)CNC(=O)[C@H](CCC(=O)O)NC1=O` [Peptide 28] (HELM PEPTIDE1{A.C.F.F.P.[N=C(N)NCCCC[C@H](N[*:1])C(=O)[*:2]].C.P.W.V.E.G.C.A.[am]}|CHEM1{[O=C(CC[*:1])N1CN(C(=O)CC[*:2])CN(C(=O)CC[*:3])C1]}$PEPTIDE1,CHEM1,2:R3-1:R1|PEPTIDE1,CHEM1,7:R3-1:R2|PEPTIDE1,CHEM1,13:R3-1:R3$$$V2.0), the Ki in test [1] was less than 9 nM. For the same molecule, the Kd in test [2] worked out at 1.12 nM.

With `CC(C)[C@@H]1NC(=O)[C@H](C)NC(=O)[C@@H]2CCCN2C(=O)[C@@H]2CSCCC(=O)N3CN(CN(C3)C(=O)CCSC[C@H](NC(=O)[C@H](C)N)C(=O)N[C@@H](CO)C(=O)N[C@@H](Cc3ccccc3)C(=O)N3CCC[C@H]3C(=O)N[C@@H](CCCCN)C(=O)N2)C(=O)CCSC[C@@H](C(=O)N[C@@H](C)C(N)=O)NC(=O)CNC(=O)[C@H](CCC(=O)O)NC1=O` [Peptide 21] (HELM PEPTIDE1{A.C.S.F.P.K.C.P.A.V.E.G.C.A.[am]}|CHEM1{[O=C(CC[*:1])N1CN(C(=O)CC[*:2])CN(C(=O)CC[*:3])C1]}$PEPTIDE1,CHEM1,2:R3-1:R1|PEPTIDE1,CHEM1,7:R3-1:R2|PEPTIDE1,CHEM1,13:R3-1:R3$$$V2.0), in test [1], the Ki was more than 5000 nM. Moreover, the Kd in test [2] is more than 2500 nM.

As to `C[C@H](N)C(=O)N[C@H]1CSCCC(=O)N2CN3CN(C2)C(=O)CCSC[C@H](NC(=O)[C@H](CCCCN)NC(=O)[C@@H]2CCCN2C(=O)[C@H](Cc2ccccc2)NC(=O)[C@H](CO)NC1=O)C(=O)N1CCC[C@H]1C(=O)N[C@@H](Cc1c[nH]c2ccccc12)C(=O)N[C@@H](C)C(=O)N[C@@H](CCC(=O)O)C(=O)NCC(=O)N[C@H](C(=O)N[C@@H](C)C(N)=O)CSCCC3=O` [Peptide 22] (HELM PEPTIDE1{A.C.S.F.P.K.C.P.W.A.E.G.C.A.[am]}|CHEM1{[O=C(CC[*:1])N1CN(C(=O)CC[*:2])CN(C(=O)CC[*:3])C1]}$PEPTIDE1,CHEM1,2:R3-1:R1|PEPTIDE1,CHEM1,7:R3-1:R2|PEPTIDE1,CHEM1,13:R3-1:R3$$$V2.0), the Ki in test [1] is more than 5000 nM. In test [2], the Kd was determined as 669 nM.

These data come from publication PMC12120022, “Discovery and chemical optimisation of a potent, Bi-cyclic antimicrobial inhibitor of Escherichia coli PBP3” (Communications Biology, 2025).
